Earlier results as cited in patent publication US6541487B1, “PDE III inhibitors for treating sexual dysfunction” (R.T. Alamo Ventures I, LLC, priority 1998, dated 2003).
Blank lines part the entries; values can stand above or below the compound they belong to.

Assays:
[1] = system: coronary vascular smooth muscle tissue
[2] = following oral administration
[3] = system: plasma high density lipoprotein cholesterol; settings: in vivo
[4] = not given; remark: listed apart in the source
corpus cavernosum = settings: intracavernosal injection; severe atherosclerosis not involved
[5] = for priapism: treatment of impotence

SMILES: CCCc1nn(C)c2c(=O)[nH]c(-c3cc(S(=O)(=O)N4CCN(C)CC4)ccc3OCC)nc12 [Sildenafil]
- inhibition of PDE III (PDE III): negligible inhibition
- cyclic AMP levels [1]: no change
- cyclic GMP levels [1]: selectively increases

SMILES: O=C1CCc2cc(OCCCCc3nnnn3C3CCCCC3)ccc2N1 [cilostazol, 6-[4-(1-cyclohexyl-5-tetrazoyl)butoxy]-1,2,3,4-tetrahydro-2-oxoquinoline]
- time of peak plasma concentrations of cilostazol [2]: 2 to 4 h
- platelet aggregation (platelet aggregation): suppresses
- plasma high density lipoprotein cholesterol [3]: increasing

- time of peak plasma concentrations of flosequinan (following oral administration): 1 to 2 h
- time of peak metabolite plasma levels (following oral dosage, metabolite of flosequinan): about seven
- mean absolute bioavailability (oral, single dose per day of 50 milligrams or 75 milligrams): 72%
- solubility in organic solvents [4]: soluble in many organic solvents
- solubility in water [4]: water soluble
SMILES: Cn1cc([S+](C)[O-])c(=O)c2ccc(F)cc21 (stereo not drawn) [flosequinan, 7-fluoro-1-methyl-3-methylsulphinyl-4-quinolone]
- inhibition of PDE III (PDE III): selective inhibitor

SMILES: COc1ccc(Cc2nccc3cc(OC)c(OC)cc23)cc1OC [papaverine]
- erection after injection into a corpus cavernosum (corpus cavernosum): erection sufficient for vaginal penetration
- priapism [5]: often results in priapism

SMILES: CC(COc1ccccc1)N(CCCl)Cc1ccccc1 (stereo not drawn) [phenoxybenzamine]
- erection after injection into a corpus cavernosum (corpus cavernosum): erection sufficient for vaginal penetration
- carcinogenicity ([5]; in vivo): carcinogen
- priapism [5]: often results in priapism

SMILES: Cc1ccc(N(CC2=NCCN2)c2cccc(O)c2)cc1 [phentolamine]
- erection after injection into a corpus cavernosum (corpus cavernosum): erection sufficient for vaginal penetration
